# What was measured:
# CAL-148 cells = assay: Resazurin-based cell viability assay, monotherapy drug screen; design: species or system human; AUC: unit not given beside the values; conditions: CAL-148; for AUC: area under the dose response curve, 24 h; for GRmax: drug efficacy at highest tested dose (<0 cytotoxic, 0 cytostatic, >0 partial growth inhibition)
# Experimental: (§1) Eighteen pharmaceutical compounds were purchased from Selleckchem (Supplementary Table 2). Stock solutions were prepared using dimethyl sulfoxide (DMSO; Merck), physiological saline (sodium chloride 0.9%) or Milli-Q water, and stored at −80 °C. […] Matched concentration solvent vehicle controls were used for each drug concentration. The drug screens were performed in triplicate and repeated three (monotherapy) or two (combination therapy) times (Fig. 7).
# (§2) The optimal seeding density per 96-well was determined for each cell line as previously described. The cells were seeded at a density of 4.0 × 10^3 to 7.5 × 10^3 (cell type dependent) in 96-well clear, flat-bottom microplates (Corning Life Sciences, Sigma-Aldrich) in 100 µl complete culture medium (Supplementary Table 1) and cultured for 24 h. Cell viability was determined using the resazurin assay in untreated cells at the time of plating (t = 0) and treated cells after 24 h drug treatment (Fig. 7). Percentage cell viability was calculated as 100% × (absorbance of treated cells – absorbance of background controls) / (absorbance of matched solvent vehicle controls – absorbance of background controls). The area under the curve (AUC), half-maximal inhibitory concentration (IC50), drug potency (GR50), and drug efficacy (GRmax) were determined for each compound using the GRmetrics (version 1.20.0) package in R. The monotherapy data were evaluated with the IDACombo (version 1.0.2) package in R to predict potential drug combinations (Table 1). SynergyFinder (version 3.2.10) package in R was used to identify synergistic drug combinations.
# (§3) Eighteen pharmaceutical compounds were purchased from Selleckchem. […] The solubility of the compound was enhanced by pre-heating the solvent (lukewarm), if necessary. […] The stock solutions were stored at -80°C. […] Matched concentration solvent vehicle controls were used for each drug concentration. The drug screens were performed in triplicate and repeated three times for the monotherapies and twice for the combination treatments. The drug(s) and corresponding controls were plated in 96-well PCR plates (VWR) and stored at -20°C (Fig. 6). The drug plates were thawed, centrifuged (3000 rpm for 30s), and acclimatized to RT before the drugs were added to the cells. New drug plates were prepared for each drug screen.
# Cell viability was measured daily (day 0 [plating day] to day 4) using 0.2 mg/ml resazurin solution prepared from resazurin sodium salt (Fisher Scientific) dissolved in sterile 1xPBS (ThermoFisher Scientific). Before use, the resazurin solution was brought to RT before 10 µl (10% of cell medium volume) was added to each 96-well and incubated for 4h at 37°C. […] The slope of the curve was used to determine the optimal seeding density, i.e., the highest seeding density with linear growth between days 1 and 3.
# (§4) The cells were seeded at a density of 4.0x10^3 to 7.5x10^3 (cell type-dependent) in 96-well clear, flat-bottom microplates (Corning Life Sciences, Sigma-Aldrich) in 100 µl culture medium supplemented with 10% FBS and cultured for 24h. Cell viability was determined using the resazurin assay after 24h drug treatment (Fig. 6). Percentage cell viability was calculated as 100% × (absorbance of treated cells – absorbance of background controls) / (absorbance of matched solvent vehicle controls – absorbance of background controls). Normalized growth rate inhibition (GR) was assessed using the absorbance of untreated cells after the time of plating (t = 0). […] For combination treatment, the monotherapy data were evaluated with the IDACombo (version 1.0.2)[20] package in R to predict potential drug combinations (Table 1). SynergyFinder (version 3.2.10)[21] package in R was used to identify synergistic drug combinations.
# BT-549 cells = assay: as above; design: species or system human; AUC: scale not given here; conditions: BT-549; for AUC: area under the dose response curve, 24 h; for GRmax: drug efficacy at highest tested dose (<0 cytotoxic, 0 cytostatic, >0 partial growth inhibition)
# Experimental: (§5) Eighteen pharmaceutical compounds were purchased from Selleckchem. […] The stock solutions were stored at -80°C. […] New drug plates were prepared for each drug screen.
# (§6) To determine the optimal seeding density and ensure that the cells were in the exponential phase during the duration of the experiment (approx. 52h), each cell line (BT-549, CAL-148, HCC1806, HCC38, HCC70, MCF-10A, MCF-7, MDA-MB-436, MDA-MB-453, and MDA-MB-468) was seeded at different concentrations (1000 to 16000 cells) per 96-well, as previously described. Cell viability was measured daily (day 0 [plating day] to day 4) using 0.2 mg/ml resazurin solution prepared from resazurin sodium salt (Fisher Scientific) dissolved in sterile 1xPBS (ThermoFisher Scientific). Before use, the resazurin solution was brought to RT before 10 µl (10% of cell medium volume) was added to each 96-well and incubated for 4h at 37°C. The absorbance was measured with a 560 nm excitation filter and a 615 nm emission filter in a Wallac 1420 VICTOR2™ microplate reader (Perkin Elmer). The slope of the curve was used to determine the optimal seeding density, i.e., the highest seeding density with linear growth between days 1 and 3.
# HCC1806 cells = assay: as above; design: species or system human; AUC: scale not given here; conditions: HCC1806; for AUC: area under the dose response curve, 24 h; for GRmax: drug efficacy at highest tested dose (<0 cytotoxic, 0 cytostatic, >0 partial growth inhibition)
# Experimental: as §5, §6
# HCC38 cells = assay: as above; design: species or system human; AUC: scale not given here; conditions: HCC38; for AUC: area under the dose response curve, 24 h; for GRmax: drug efficacy at highest tested dose (<0 cytotoxic, 0 cytostatic, >0 partial growth inhibition)
# Experimental: as §5, §6
# HCC70 cells = assay: as above; design: species or system human; AUC: scale not given here; conditions: HCC70; for AUC: area under the dose response curve, 24 h; for GRmax: drug efficacy at highest tested dose (<0 cytotoxic, 0 cytostatic, >0 partial growth inhibition)
# Experimental: as §5, §6
# MCF-10A cells = assay: as above; design: species or system human; AUC: scale not given here; conditions: for AUC: area under the dose response curve, 24 h; for GRmax: drug efficacy at highest tested dose (<0 cytotoxic, 0 cytostatic, >0 partial growth inhibition)
# Experimental: as §5, §6
# MCF-7 cells = assay: as above; design: species or system human; AUC: scale not given here; conditions: MCF-7; for AUC: area under the dose response curve, 24 h; for GRmax: drug efficacy at highest tested dose (<0 cytotoxic, 0 cytostatic, >0 partial growth inhibition)
# Experimental: as §5, §6
# MDA-MB-436 cells = assay: as above; design: species or system human; AUC: scale not given here; conditions: MDA-MB-436; for AUC: area under the dose response curve, 24 h; for GRmax: drug efficacy at highest tested dose (<0 cytotoxic, 0 cytostatic, >0 partial growth inhibition)
# Experimental: as §5, §6
# MDA-MB-453 cells = assay: as above; design: species or system human; AUC: scale not given here; conditions: MDA-MB-453; for AUC: area under the dose response curve, 24 h; for GRmax: drug efficacy at highest tested dose (<0 cytotoxic, 0 cytostatic, >0 partial growth inhibition)
# Experimental: as §5, §6
# MDA-MB-468 cells = assay: as above; design: species or system human; AUC: scale not given here; conditions: MDA-MB-468; for AUC: area under the dose response curve, 24 h; for GRmax: drug efficacy at highest tested dose (<0 cytotoxic, 0 cytostatic, >0 partial growth inhibition)
# Experimental: as §5, §6
# [1] = test system: eight TNBC cell lines (BT-549, CAL-148, HCC1806, HCC38, HCC70, MDA-MB-436, MDA-MB-453, MDA-MB-468); assay: Monotherapy drug screen, mean across the TNBC cell lines
# Experimental: as §1, §2, §3, §4
SMILES,AUC (CAL-148 cells),GRmax (CAL-148 cells),AUC (BT-549 cells),GRmax (BT-549 cells),AUC (HCC1806 cells),GRmax (HCC1806 cells),AUC (HCC38 cells),GRmax (HCC38 cells),AUC (HCC70 cells),GRmax (HCC70 cells),AUC (MCF-10A cells),GRmax (MCF-10A cells),AUC (MCF-7 cells),GRmax (MCF-7 cells),AUC (MDA-MB-436 cells),GRmax (MDA-MB-436 cells),AUC (MDA-MB-453 cells),GRmax (MDA-MB-453 cells),AUC (MDA-MB-468 cells),GRmax (MDA-MB-468 cells),other results
CCCc1ccc(OCC(=O)N(Cc2nc(-c3cccnc3)no2)C(C)C)cc1 [PI-1840],1.0,1.0,0.99,1.0,1.0,0.98,1.0,1.0,1.0,1.0,1.0,1.0,1.0,0.97,1.0,1.0,1.0,0.93,0.98,0.96,cytotoxic effect at the highest dose [1]: lowest cytotoxic effects
O=[N+]([O-])c1ccc(S(=O)(=O)N2CCN(c3ccnc4cc(Cl)ccc34)CC2)c([N+](=O)[O-])c1 [VR-23],1.0,0.95,0.98,0.85,1.0,0.93,1.0,0.95,0.98,0.82,1.0,1.0,0.98,0.82,1.0,1.0,0.99,0.40,0.97,0.74,"IC50 (MCF-7 cells; 24 h drug treatment, read-out: IC50): 6 µM; cytotoxic effect at the highest dose [1]: lowest cytotoxic effects"
